Measurements taken from article PMC10354048 (Communications Chemistry, 2023).
In brackets after ≈: the same amount, converted by molar mass. Where no end group is shown, it is not given here.

What was measured:
Assay in all cases: microbe, parasite or virus in culture
[1] = tested on: S. epidermidis CW130500; settings: for MIC: Staphylococcus epidermidis, CW130500, 20 h, read-out: Minimum inhibitory concentration S. epidermidis CW130500; for Minimum inhibitory concentration S. epidermidis CW130500: broth microdilution per CSLI guidelines, cation-adjusted Mueller Hinton Broth 2, 5 × 10^5 CFU/mL, 37 °C, 20 h, range 64–0.125 µg/mL, triplicate
Method: (§1) Minimum Inhibitory Concentrations (MIC) were determined for each of the bacteriocins and controls using a broth microdilution method, as per CSLI guidelines for microbial susceptibility testing. The peptides were dissolved in sterile deionized water to prepare the working stocks, with concentrations determined by UV absorbance at 280 nm[56]. Overnight cultures from the strains of interest were incubated with shaking overnight at 37 °C. Cation-adjusted Mueller Hinton Broth 2 (MHB 2) was used for the S. aureus, and S. epidermidis strains and Brain Heart Infusion (BHI) broth was utilized for the E. faecalis and E. faecium strains. The cultures were prepared and diluted to the turbidity of a 0.5 McFarland standard using MHB or BHI fresh media. Increasing concentrations of the leaderless bacteriocins were added to a 96-well polypropylene plate. The range tested for each bacteriocin was 64–0.125 µg/mL. The bacterial culture was further diluted and mixed in a 1:1 ratio with the bacteriocin solution to yield a final concentration in the wells of 5 × 10^5 CFU/mL. […] A 1:1000 dilution of the growth control was prepared in the respective media and plated onto agar (100 μL) to ensure the correct inoculum concentration (5 × 10^5 CFU/mL indicated by ≈ 50 bacterial colonies). The 96-well and agar plates were incubated at 37 °C, and growth was assessed by the formation of a pellet observable with the naked eye after 20 h. […] Each assay was performed in triplicate.
(§2) Materials and instruments […]
(§3) Minimum Inhibitory Concentration (MIC) assays were conducted in 96-Well Clear polypropylene corner notch microplates (Corning, #11313595). For the assay media, cation adjusted Mueller Hinton Broth 2 (Sigma Aldrich, #90922) was used for the S. aureus, and S. epidermidis strains and Brain Heart Infusion broth (BD, #221812) was used for the E. faecalis and E. faecium […]
(§4) used, as well as melittin prepared by automated SPPS. Experimental bacterial strains used were procured from the American Type Culture collection (S. aureus 29213) and the Canadian Antimicrobial Resistance Alliance

[2] = tested on: S. aureus AC29213; settings: for MIC: Staphylococcus aureus, AC29213, 20 h, read-out: Minimum inhibitory concentration S. aureus AC29213; for Minimum inhibitory concentration S. aureus AC29213: broth microdilution per CSLI guidelines, cation-adjusted Mueller Hinton Broth 2, 5 × 10^5 CFU/mL, 37 °C, 20 h, range 64–0.125 µg/mL, average of three repeat assays
Method: (§5) Minimum inhibitory concentrations, determined by broth microdilution, are expressed as an average of three repeat assays. […] [a] MIC values expressed in μg/mL, [b] AC: American Type Culture Collection strain, [c] CW: CANWARD collection clinical isolate strain.33.
as §1, §2
(§6) Minimum Inhibitory Concentration (MIC)
(§7) assays were conducted in 96-Well Clear polypropylene corner notch microplates (Corning, #11313595). For the […]

[3] = tested on: S. aureus CW115852; settings: for MIC: Staphylococcus aureus, CW115852, 20 h, read-out: Minimum inhibitory concentration S. aureus CW115852; for Minimum inhibitory concentration S. aureus CW115852: broth microdilution per CSLI guidelines, cation-adjusted Mueller Hinton Broth 2, 5 × 10^5 CFU/mL, 37 °C, 20 h, range 64–0.125 µg/mL, average of three repeat assays
Method: as §5, §1, §2, §6, §7

[4] = tested on: S. aureus CW114125; settings: for MIC: Staphylococcus aureus, CW114125, 20 h, read-out: Minimum inhibitory concentration S. aureus CW114125; for Minimum inhibitory concentration S. aureus CW114125: broth microdilution per CSLI guidelines, cation-adjusted Mueller Hinton Broth 2, 5 × 10^5 CFU/mL, 37 °C, 20 h, range 64–0.125 µg/mL, average of three repeat assays
Method: as §5, §1, §2, §6, §7

[5] = tested on: S. epidermidis CW131612; settings: for MIC: Staphylococcus epidermidis, CW131612, 20 h, read-out: Minimum inhibitory concentration S. epidermidis CW131612; for Minimum inhibitory concentration S. epidermidis CW131612: broth microdilution per CSLI guidelines, cation-adjusted Mueller Hinton Broth 2, 5 × 10^5 CFU/mL, 37 °C, 20 h, range 64–0.125 µg/mL, average of three repeat assays
Method: as §5, §1, §2, §6, §7

[6] = tested on: S. aureus CW113379; settings: for MIC: Staphylococcus aureus, CW113379, 20 h, read-out: Minimum inhibitory concentration S. aureus CW113379; for Minimum inhibitory concentration S. aureus CW113379: broth microdilution per CSLI guidelines, cation-adjusted Mueller Hinton Broth 2, 5 × 10^5 CFU/mL, 37 °C, 20 h, range 64–0.125 µg/mL, average of three repeat assays
Method: as §5, §1, §2, §6, §7

[7] = tested on: E. faecium CW131126; settings: for Minimum inhibitory concentration E. faecium CW131126: broth microdilution per CSLI guidelines, Brain Heart Infusion broth, 5 × 10^5 CFU/mL, 37 °C, 20 h, range 64–0.125 µg/mL, triplicate
Method: as §1, §2, §3, §4

[8] = tested on: E. faecium CW130826; settings: for Minimum inhibitory concentration E. faecium CW130826: broth microdilution per CSLI guidelines, Brain Heart Infusion broth, 5 × 10^5 CFU/mL, 37 °C, 20 h, range 64–0.125 µg/mL, triplicate
Method: as §1, §2, §3, §4

[9] = tested on: E. faecalis CW133346; settings: for Minimum inhibitory concentration E. faecalis CW133346: broth microdilution per CSLI guidelines, Brain Heart Infusion broth, 5 × 10^5 CFU/mL, 37 °C, 20 h, range 64–0.125 µg/mL, triplicate
Method: as §1, §2, §3, §4

[10] = tested on: E. faecalis CW133003; settings: for Minimum inhibitory concentration E. faecalis CW133003: broth microdilution per CSLI guidelines, Brain Heart Infusion broth, 5 × 10^5 CFU/mL, 37 °C, 20 h, range 64–0.125 µg/mL, average of three repeat assays
Method: as §5, §1, §2, §6, §7

| Compound | MIC [1] | MIC [2] | MIC [3] | MIC [4] | MIC [5] | MIC [6] | Minimum inhibitory concentration S. epidermidis CW130500 [1] | Minimum inhibitory concentration E. faecium CW131126 [7] | Minimum inhibitory concentration E. faecium CW130826 [8] | Minimum inhibitory concentration E. faecalis CW133346 [9] | Minimum inhibitory concentration S. aureus AC29213 [2] | Minimum inhibitory concentration S. aureus CW115852 [3] | Minimum inhibitory concentration E. faecalis CW133003 [10] | Minimum inhibitory concentration S. aureus CW114125 [4] | Minimum inhibitory concentration S. epidermidis CW131612 [5] | Minimum inhibitory concentration S. aureus CW113379 [6] | MIC ([7]; Enterococcus faecium, CW131126, 20 h, read-out: Minimum inhibitory concentration E. faecium CW131126) | MIC ([8]; Enterococcus faecium, CW130826, 20 h, read-out: Minimum inhibitory concentration E. faecium CW130826) | MIC ([9]; Enterococcus faecalis, CW133346, 20 h, read-out: Minimum inhibitory concentration E. faecalis CW133346) | MIC ([10]; Enterococcus faecalis, CW133003, 20 h, read-out: Minimum inhibitory concentration E. faecalis CW133003) |
| --- | --- | --- | --- | --- | --- | --- | --- | --- | --- | --- | --- | --- | --- | --- | --- | --- | --- | --- | --- | --- |
| CC1(C)S[C@@H]2[C@H](NC(=O)[C@H](N)c3ccccc3)C(=O)N2[C@H]1C(=O)O [Ampicillin, ampicillin, reference compound] | 8 µg/mL (≈ 22.9 µM) | 2 µg/mL (≈ 5.72 µM) | 4 µg/mL (≈ 11.4 µM) | 16 µg/mL (≈ 45.8 µM) | > 64 µg/mL | 32 µg/mL (≈ 91.6 µM) | – | – | – | – | – | – | – | – | – | – | – | – | – | – |
| CC[C@H](C)[C@H](NC(=O)CN)C(=O)NCC(=O)N[C@@H](C)C(=O)N[C@H](C(=O)N[C@@H](CC(C)C)C(=O)N[C@@H](CCCCN)C(=O)N[C@H](C(=O)N[C@@H](CC(C)C)C(=O)N[C@H](C(=O)N[C@H](C(=O)NCC(=O)N[C@@H](CC(C)C)C(=O)N1CCC[C@H]1C(=O)N[C@@H](C)C(=O)N[C@@H](CC(C)C)C(=O)N[C@H](C(=O)N[C@@H](CO)C(=O)N[C@@H](Cc1c[nH]c2ccccc12)C(=O)N[C@H](C(=O)N[C@@H](CCCCN)C(=O)N[C@@H](CCCNC(=N)N)C(=O)N[C@@H](CCCCN)C(=O)N[C@@H](CCCNC(=N)N)C(=O)N[C@@H](CCC(N)=O)C(=O)N[C@@H](CCC(N)=O)C(N)=O)[C@@H](C)CC)[C@@H](C)CC)[C@@H](C)O)[C@@H](C)O)C(C)C)C(C)C [Melittin, melittin, reference compound] | – | – | – | – | – | – | 8 µg/mL (≈ 2.81 µM) | 8 µg/mL (≈ 2.81 µM) | 8 µg/mL (≈ 2.81 µM) | 16 µg/mL (≈ 5.62 µM) | 8 µg/mL (≈ 2.81 µM) | 4 µg/mL (≈ 1.41 µM) | 16 µg/mL (≈ 5.62 µM) | 8 µg/mL (≈ 2.81 µM) | 4 µg/mL (≈ 1.41 µM) | 4 µg/mL (≈ 1.41 µM) | – | – | – | – |
| CN(C)[C@@H]1C(O)=C(C(N)=O)C(=O)[C@@]2(O)C(O)=C3C(=O)c4c(O)cccc4[C@@](C)(O)[C@H]3C[C@@H]12 [Tetracycline, tetracycline, reference compound] | < 0.125 µg/mL | < 0.125 µg/mL | 8 µg/mL (≈ 18 µM) | 32 µg/mL (≈ 72 µM) | 1 µg/mL (≈ 2.25 µM) | 16 µg/mL (≈ 36 µM) | – | – | – | – | – | – | – | – | – | – | > 64 µg/mL | 0.25 µg/mL (≈ 0.563 µM) | 64 µg/mL (≈ 144 µM) | 1 µg/mL (≈ 2.25 µM) |
| MAGFLKVVQLLAKYGSKAVQLAWANKGKILDWLNAGQAIDWVVSKIKQILGIK-NH2 [L-W21L, L-lacticin Q W21L (Met^1-Lys^53)] | – | – | – | – | – | – | 16 µg/mL | 4 µg/mL | 4 µg/mL | 4 µg/mL | 16 µg/mL | 32 µg/mL | 8 µg/mL | 32 µg/mL | 16 µg/mL | 16 µg/mL | – | – | – | – |
| MAGFLKVVQLLAKYGSKAVQWALANKGKILDWLNAGQAIDWVVSKIKQILGIK-NH2 [L-W23L, L-lacticin Q W23L (Met^1-Lys^53)] | – | – | – | – | – | – | – | 4 µg/mL | – | 8 µg/mL | 32 µg/mL | 64 µg/mL | 4 µg/mL | > 64 µg/mL | 32 µg/mL | 64 µg/mL | – | – | – | – |
| MAGFLKVVQLLAKYGSKAVQWAWANKGKILDLLNAGQAIDWVVSKIKQILGIK-NH2 (C-terminus assumed) [L-W32L, L-lacticin Q W32L (Met^1-Lys^53)] | – | – | – | – | – | – | 16 µg/mL | 4 µg/mL | 2 µg/mL | 4 µg/mL | 64 µg/mL | 32 µg/mL | 4 µg/mL | 64 µg/mL | 16 µg/mL | 32 µg/mL | – | – | – | – |
| MAGFLKVVQLLAKYGSKAVQWAWANKGKILDWLNAGQAIDLVVSKIKQILGIK-NH2 (C-terminus assumed) [L-W41L, L-lacticin Q W41L (Met^1-Lys^53)] | – | – | – | – | – | – | – | 8 µg/mL | – | – | > 64 µg/mL | > 64 µg/mL | 64 µg/mL | > 64 µg/mL | > 64 µg/mL | > 64 µg/mL | – | – | – | – |
| MAGFLKVVQLLAKYGSKAVQWAWANKGKILDWLNAGQAIDWVVSKIKQILGIK-NH2 [L-LnqQ, L-lacticin Q (Met^1-Lys^53)] | – | – | – | – | – | – | 16 µg/mL | 2 µg/mL | 2 µg/mL | 4 µg/mL | 16 µg/mL | 64 µg/mL | 2 µg/mL | 32 µg/mL | 8 µg/mL | 32 µg/mL | – | – | – | – |
| MSLLNFLKYIAKYGKKAVSAAWKYKGKVLEWLNVGPTLEWVWQKLKKIAGL-NH2 [L-W3L, L-aureocin A53 W3L (Met^1-Leu^51)] | – | – | – | – | – | – | 4 µg/mL | 4 µg/mL | 2 µg/mL | 4 µg/mL | 4 µg/mL | 32 µg/mL | 16 µg/mL | 4 µg/mL | 4 µg/mL | 4 µg/mL | – | – | – | – |
| MSWLNFLKYIAKYGKKAVSAALKYKGKVLEWLNVGPTLEWVWQKLKKIAGL-NH2 [L-W22L, L-aureocin A53 W22L (Met^1-Leu^51)] | – | – | – | – | – | – | 8 µg/mL | 4 µg/mL | 2 µg/mL | 4 µg/mL | 2 µg/mL | 16 µg/mL | 16 µg/mL | 8 µg/mL | 4 µg/mL | 16 µg/mL | – | – | – | – |
